The structures appear in SMILES notation.

The data set can be described thus: Particle size of drug particles after bead mill grinding (Microtrac UPA 150 M). Format: physicochemical. Conditions: slurry with PVP K-25 3 w/w % and sodium lauryl sulfate 0.25 w/w % in water, pH 6.07-10.37; zirconia beads 0.5 mm; ground 120 minutes. The protocol:
Phenitoin (Shizuoka Caffein Co., Ltd.) (7.5 g, 5 w/w %) as a drug, polyvinylpyrrolidone (PVP K-25, BASF Japan Ltd.) (4.5 g, 3 w/w %) as a polymer compound, sodium lauryl sulfate (Cognis Japan Ltd.) (0.375 g, 0.25 w/w %) as a surfactant were dispersed in 137.6 g of purified water to prepare a slurry. The pH of the slurry was 3.88. The pH was adjusted by adding 1N aqueous sodium hydroxide solution to this slurry, and samples having various pH (pH 6.07, 6.68, 7.36, 8.14, 8.96, 10.37) were prepared.
Each sample (100 g) and beads (217.3 g, filling ratio 70%) were charged into Dyno-mill Research Lab (manufactured by WAB), and the grinding process by the bead mill was carried out for 120 minutes (disc peripheral speed: 4 m/s, temperature: 20° C., fluid speed: 45 g/min). The beads used for the grinding process were YTZ ball (zirconia beads manufactured by Nikkato Corporation, with diameter of 0.5 mm). As used herein, the term “filling ratio” refers to the ratio (in percentage) of the true volume to the bulk volume of the beads, and hereinafter the same is applied.
The particle size of the drug particles after the grinding process was nano-order of less than 1 μm (D50 value). The particle size was determined using Microtrac UPA 150 M (MicrotracBEL Corp.). […]

Consider `O=C1NC(=O)C(c2ccccc2)(c2ccccc2)N1` [Phenitoin, Phenytoin], for which the “particle size of the drug particles after the grinding process (D50 value)” value is reported as “less than 1 μm”.
